Results on 10 compounds are retold here after patent US20080227797A1, “Pyridopyrimidine Derivatives as Pde4 Inhibitors for the Treatment of Inflammatory and Immune Diseases” (ASTRAZENECA AB, priority 2005, published 2008).

In this experiment the target is recombinant Human Phosphodiesterase B2 (PDE4B2) (Homo sapiens, UniProt Q07343). Put plainly: Human Phosphodiesterase B2 Alpha Screen Assay. It is filed as biochemical. The conditions noted are these: cAMP substrate, Alpha Screen cAMP kit, 60 minutes at room temperature. The procedure, abridged: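 Recombinant human PDE4B2 preincubated 15 min at RT with compound in 50 mM Tris pH 7.5, 8.3 mM MgCl2, 1.7 mM EGTA, 0.01% Brij35, then reacted with cAMP for 60 min at RT. Stopped with EDTA; AlphaScreen beads with biotinylated cAMP incubated 5 h in the dark before reading. IC50 from curve fitting.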
Chain of recombinant Human Phosphodiesterase B2 (PDE4B2) (Q07343 1-564 isoform Q07343-2): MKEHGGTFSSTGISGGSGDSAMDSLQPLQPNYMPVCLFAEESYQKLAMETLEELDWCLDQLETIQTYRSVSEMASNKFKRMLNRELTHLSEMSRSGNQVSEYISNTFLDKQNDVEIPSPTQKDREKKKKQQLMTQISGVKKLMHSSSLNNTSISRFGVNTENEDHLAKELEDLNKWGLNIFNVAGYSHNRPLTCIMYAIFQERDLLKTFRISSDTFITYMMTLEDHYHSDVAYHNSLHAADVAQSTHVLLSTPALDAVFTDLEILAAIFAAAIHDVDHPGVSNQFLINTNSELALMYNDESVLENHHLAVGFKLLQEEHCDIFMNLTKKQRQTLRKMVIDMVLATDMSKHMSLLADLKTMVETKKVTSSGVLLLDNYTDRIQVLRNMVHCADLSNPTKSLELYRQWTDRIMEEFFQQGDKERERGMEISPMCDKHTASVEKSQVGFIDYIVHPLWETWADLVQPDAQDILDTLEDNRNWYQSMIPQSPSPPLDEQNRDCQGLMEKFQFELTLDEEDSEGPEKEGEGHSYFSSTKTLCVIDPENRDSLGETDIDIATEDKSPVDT
As to `COC(=O)c1ccc(C(=O)N[C@H]2CC[C@@H](n3c(=O)c4cc(F)cnc4n(-c4ccc(F)c(F)c4)c3=O)CC2)cn1` [Example 50, methyl 5-[({cis-4-[1-(3,4-difluorophenyl)-6-fluoro-2,4-dioxo-1,4-dihydropyrido[2,3-d]pyrimidin-3(2H)-yl]cyclohexyl}amino)carbonyl]pyridine-2-carboxylate], the IC50 (commonly the concentration needed to halve the response being measured) was 2.1 nM. Regarding `CSc1cccc(-n2c(=O)n([C@H]3CC[C@@H](NC(=O)[C@H](O)c4ccccc4)CC3)c(=O)c3cc(F)cnc32)c1` [Example 37, (2R)-N-{cis-4-[6-fluoro-1-[3-(methylthio)phenyl]-2,4-dioxo-1,4-dihydropyrido[2,3-d]pyrimidin-3(2H)-yl]cyclohexyl}-2-hydroxy-2-phenylacetamide], the IC50 came out at 0.5 nM. On to `CS(=O)(=O)c1cccc(-n2c(=O)n([C@H]3CC[C@@H](NC(=O)[C@H](O)c4ccccc4)CC3)c(=O)c3cc(F)cnc32)c1` [Example 42, (2R)-N-{cis-4-[6-fluoro-1-[3-(methylsulfonyl)phenyl]-2,4-dioxo-1,4-dihydropyrido[2,3-d]pyrimidin-3(2H)-yl]cyclohexyl}-2-hydroxy-2-phenylacetamide], for which the IC50 is less than 16 nM. The value for `CSc1cccc(-n2c(=O)n([C@H]3CC[C@@H](NC(=O)c4cc(C)ccc4O)CC3)c(=O)c3cc(F)cnc32)c1` [Example 35, N-{cis-4-[6-fluoro-1-[3-(methylthio)phenyl]-2,4-dioxo-1,4-dihydropyrido[2,3-d]pyrimidin-3(2H)-yl]cyclohexyl}-2-hydroxy-5-methylbenzamide] was 1.4 nM; that for `O=C(N[C@H]1CC[C@@H](n2c(=O)c3cc(F)cnc3n(-c3ccc(F)c(F)c3)c2=O)CC1)c1cc2ccccc2[nH]1` [Example 87, N-{cis-4-[1-(3,4-difluorophenyl)-6-fluoro-2,4-dioxo-1,4-dihydropyrido[2,3-d]pyrimidin-3(2H)-yl]cyclohexyl}-1H-indole-2-carboxamide] was 0.885 nM. `CSc1cccc(-n2c(=O)n([C@H]3CC[C@@H](NC(=O)c4cc(Cl)ccc4O)CC3)c(=O)c3cc(F)cnc32)c1` [Example 34, 5-chloro-N-{cis-4-[6-fluoro-1-[3-(methylthio)phenyl]-2,4-dioxo-1,4-dihydropyrido[2,3-d]pyrimidin-3(2H)-yl]cyclohexyl}-2-hydroxybenzamide]: the IC50 was determined as 3.2 nM. The value for `O=C(N[C@H]1CC[C@@H](n2c(=O)c3cc(F)cnc3n(-c3ccc(F)c(F)c3)c2=O)CC1)C1CC1` [Example 48, N-{cis-4-[1-(3,4-Difluorophenyl)-6-fluoro-2,4-dioxo-1,4-dihydropyrido[2,3-d]pyrimidin-3(2H)-yl]cyclohexyl}cyclopropanecarboxamide] was 8.8 nM; that for `CC1=C(C(=O)N[C@H]2CC[C@@H](n3c(=O)c4cc(F)cnc4n(-c4ccc(F)c(F)c4)c3=O)CC2)SC2=NCCCN21` [Example 92, N-{cis-4-[1-(3,4-difluorophenyl)-6-fluoro-2,4-dioxo-1,4-dihydropyrido[2,3-d]pyrimidin-3(2H)-yl]cyclohexyl}-3-methyl-6,7-dihydro-5H-[1,3]thiazolo[3,2-a]pyrimidine-2-carboxamide] was 7.83 nM.

`O=C(N[C@H]1CC[C@@H](n2c(=O)c3cc(F)cnc3n(-c3ccc(F)c(F)c3)c2=O)CC1)[C@H](O)C1CCCCC1` [Example 22, (2R)-2-cyclohexyl-N-{cis-4-[1-(3,4-difluorophenyl)-6-fluoro-2,4-dioxo-1,4-dihydropyrido[2,3-d]pyrimidin-3(2H)-yl]cyclohexyl}-2-hydroxyacetamide]: the half-maximal inhibitory concentration (IC50) amounted to 1 nM. As to `O=C(CNC(=O)c1ccccc1O)N[C@H]1CC[C@@H](n2c(=O)c3cc(F)cnc3n(-c3ccc(F)c(F)c3)c2=O)CC1` [Example 24, N-[2-({cis-4-[1-(3,4-difluorophenyl)-6-fluoro-2,4-dioxo-1,4-dihydropyrido[2,3-d]pyrimidin-3(2H)-yl]cyclohexyl}amino)-2-oxoethyl]-2-hydroxybenzamide], the IC50 was 0.6 nM.
